Test results taken from patent publication US8512678B2, “Non-invasive, in vivo fluorescent imaging of the nervous system in whole living animal” (priority 2005, dated 2013).
“Also recorded” adds a separate entry of the source.

Key:
[1] = tested on: GFP expression in the astrocytes; assay: Confocal imaging of endogenous GFP with GFAP immunostaining in brain cryosections; type: in vivo, mouse; details: for GFP expression in the astrocytes: Tg mice
Experimental: (§1) In order to determine whether the photons were being emitted from the astrocytes in the CNS, the brains were harvested and fixed with 4% paraformaldehyde in 0.1 M phosphate buffer saline (PBS, pH 7.4) for 4 hr at 4° C. The brains were then washed three times in PBS with an incubation time of 15 min each time before soaking in 30% sucrose overnight at 4° C. All brains were embedded in freezing medium after immersing the tissues in liquid nitrogen prior to mounting and sectioning them using a cryostat (Leica Microsystems, Nussloch GmbH; CM-3050S). Coronal cryosections, 20 μm in thickness of the substantia nigra (bregma −3.16 mm, interaural 0.64 mm) were used for immunohistochemistry according to the Atlas of Mouse brain (Franklin and Paxinos, 2001). Each of the control and treated group contained 4 animals […].
For tyrosine hydroxylase (TH) and GFAP immunostaining, a rabbit anti-TH polyclonal antibody (Chemicon International, Temecula, Calif., USA; Ab-152) and a rabbit anti-GFAP polyclonal antibody (DakoCytomation, Denmark; Z-0334) were used. The cryosections were washed for 5 min in 0.15 M 1×PBS followed by incubating for 4 hr at 4° C. in blocking solution of PBS containing 0.1% (v/v) Triton X-100 and 10% nonimmune goat serum. The cryosections were then washed in 0.15 M 1×PBS three times, each for 15 min. The brain sections were then incubated overnight with anti-TH antibody (1:200) and anti-GFAP antibody (1:200), in 1×PBS containing 0.01% (v/v) Triton X-100 and 1% nonimmune goat serum at 4° C. After a three times 15 min rinse in 1×PBS, the sections were incubated with Texas-red conjugated goat polyclonal to rabbit secondary IgG antibody (Abcam Ltd, Cambridge, U.K.; Ab-7088) at 1:100 dilution in PBS containing 0.01% (v/v) Triton X-100 and 1% nonimmune goat serum for 2 hr at room temperature. After another three times 15 min rinse in 1×PBS, the sections were coverslipped in 10 μl of the fluorescence medium and viewed under the confocal laser scanning microscope (Olympus Optical Co. Ltd. Tokyo, Japan; IX-71).

[2] = tested on: tyrosine hydroxylase (TH) immuno-positive dopaminergic neurons; assay: TH immunostaining in the substantia nigra compact (SNC); type: in vivo, mouse; details: 6 hr after 12 mg/kg sc, neonatal mice
Experimental: as §1
For tyrosine hydroxylase (TH) and GFAP immunostaining, a rabbit anti-TH polyclonal antibody (Chemicon International, Temecula, Calif., USA; Ab-152) and a rabbit anti-GFAP polyclonal antibody (DakoCytomation, Denmark; Z-0334) were used. […] After another three times 15 min rinse in 1×PBS, the sections were coverslipped in 10 μl of the fluorescence medium and viewed under the confocal laser scanning microscope (Olympus Optical Co. Ltd. Tokyo, Japan; IX-71).

[3] = tested on: GFAP-GFP transgene; assay: Non-invasive in vivo neural imaging of GFAP-GFP transgenic neonatal mice (relative fluorescence, IVIS); set-up: species or system mouse; details: for increase in relative fluorescence (RF), mean, compared to 0 hr: 6 hr after treatment; for increase in relative fluorescence (RF), mean, over the control group: 6 hr post-treatment, P<0.01
From the text: The generation and genotyping of the transgenic GFAP-GFP mice were done as previously described (Zhuo et al., 1997). Neonatal mice of FVB/N background at 4 days of age, weighing 2.0 g-2.5 g were used in the present study. Animal husbandry was provided by National University of Singapore animal holding unit facility. The experimental protocol covering the current study was approved by the Institutional Animal Care and Use Committee.
The neonatal mice received a single subcutaneous (sc) injection of 2′-CH3-MPTP (12 mg/kg in saline) at 0 hour. Saline was used as a vehicle for the control group. Neural imaging was subsequently performed at 2 hr, 4 hr, 6 hr and 8 hr post-treatment.
Non-invasive imaging was conducted using an IVIS Imaging System 100 Series (Xenogen Corp., Alameda, Calif., U.S.A.). A 2′-CH3-MPTP-treated pair comprising of a transgenic and a non-transgenic neonatal mouse was positioned beside one another and held in position without anesthesia by physically restraining the mice on the lower back using tape. […] Subsequently, the pair of neonatal mice were fluorescently imaged with the GFP filter set equipped with the IVIS system. The image acquisition time was ten seconds. The same procedure was applied on the control pair injected with saline as well. Result of the neurotoxic effect of 2′-CH3-MPTP on the mice was expressed as relative fluorescence (RF), a ratio between the total GFP fluorescent signals detected from the region of interest (ROI) in transgenic (Tg) mouse and the tissue autofluorescence signals from the ROI in non-transgenic (nTg) mouse (TgROI/nTgROI). The area of the ROI for both mice is exactly the same and is identical throughout all the ROI used in the study to quantify the radiances. To minimize any variations due to the imaging system, three images were captured for each pair of treated and control mice and the mean value derived used as the quantitative reading for that particular pair. The values of the control (n=5 pairs of mice) and treated groups (n=5 pairs of mice) were expressed as means±SEM and statistical significance was evaluated using Student's two-tailed paired t-test.
The neurotoxin used was 2′-CH3-MPTP.
The neurotoxins used were 2′-CH3-MPTP and Kainic Acid (KA). […] KA was used in dosages 2 mg/kg with one injection. All injections were carried out subcutaneously.

[4] = tested on: GFAP gene expression; assay: Real-time RT-PCR of brain RNA, GFAP gene expression; type: in vivo, mouse; details: transgenic mice, 2 hours after treatment, 1×2 mg/kg, p<0.01
Experimental: (§2) […] The brain was removed and then lysed in buffer RA1 and β-mercaptoethanol. Total RNA from the brain was isolated using NucleoSpin® RNA II kit. Total RNA was reverse-transcribed with random hexamers and real-time RT-PCR was performed on the cDNA to quantify gene expression.
(§3) The brain was removed and then lysed in buffer RA1 and β-mercaptoethanol. Total RNA from the brain was isolated using NucleoSpin® RNA II kit. Total RNA was reverse-transcribed with random hexamers and real-time RT-PCR was performed on the cDNA to quantify gene expression. The same procedure is carried out for mice treated with KA (1×2 mg/kg).

[5] = tested on: GFP gene expression; assay: Real-time RT-PCR of brain RNA, GFP gene expression; type: in vivo, mouse; details: transgenic mice, 2 hours after treatment, 1×2 mg/kg, p<0.05
Experimental: as §2, §3

Cc1ccccc1C1=CCN(C)CC1 [2′-CH3-MPTP, 1-methyl-4-(2′-methylphenyl)-1,2,3,6-tetrahydropyridine]
expression of the GFAP-GFP transgene in the astrocytes ([1]; SNC sections, 6 hr post-treatment as compared to 0 hr, 12 mg/kg sc): up-regulation | GFP expression in the astrocytes ([1]; ventricle and hippocampus area, 6 hr after one-time 12 mg/kg sc): evidently increased | TH immuno-positive fibers and cell bodies / TH-like immunoreactivity [2]: No visual reduction; also recorded: No obvious changes | increase in relative fluorescence (RF), mean, compared to 0 hr ([3]; single dose 12 mg/kg sc, neonatal mice, P<0.0001): 17% | increase in relative fluorescence (RF), mean, over the control group ([3]; single dose 12 mg/kg sc, neonatal mice, brain ROI): 22% | difference in relative fluorescence (RF) between treated and control group ([3]; single dose 12 mg/kg sc, at 4 hr, 6 hr and 8 hr after treatment): significant difference

C=C(C)[C@H]1CN[C@H](C(=O)O)[C@H]1CC(=O)O [KA, Kainic acid]
enhancement in gene expression of GFAP [4]: about 21% | enhancement in gene expression of GFP [5]: ~22% | GFP expression in the astrocytes ([1]; various areas of the hippocampus (CA1, CA2, CA3), 6 hr after one-time 2 mg/kg sc): evidently increased | increase in relative fluorescence (RF), mean, compared to 0 hr ([3]; single dose 2 mg/kg sc, P<0.05): 22% | increase in relative fluorescence (RF), mean, over the control group ([3]; single dose 2 mg/kg sc, neonatal mice): 25% | difference in relative fluorescence (RF) between treated and control group ([3]; single dose 2 mg/kg sc, at 4 hr and 6 hr after treatment): significant difference

CN1CC=C(c2ccccc2)CC1 [MPTP, 1-methyl-4-phenyl-1,2,3,6-tetrahydropyridine]
difference in RF between the different time intervals ([3]; single dose 12 mg/kg sc, neonatal transgenic mice (FIG. 9)): no significant difference
